From PMC7845594, “Novel Immune Modulators Enhance Caenorhabditis elegans Resistance to Multiple Pathogens” (mSphere, 2021)

Key:
CCRF-CEM = conditions: cited from earlier work
ESRE network = assay: hsp-16.1p::GFP reporter (ESRE activation); assay type: in vivo, Caenorhabditis elegans; conditions: 50 or 100 μM, no pathogen
Description: Previous work from our lab has established that the ESRE network plays an important role in the resistance of C. elegans to pyoverdine, the main virulence determinant in liquid killing, and recent evidence has shown that ESRE activation depends on increased reactive oxygen species (ROS) ([23], [38], [39]). To evaluate ESRE activation, worms carrying an hsp-16.1p::GFP reporter (which contains two ESRE motifs and was previously used as an indicator of ESRE activation [[39][–][41]]), were exposed to 50 or 100 μM LK35, LK38, LK56, juglone (positive control), or DMSO. […] ROS level was assessed based on the fluorescence of dihydroethidium (DHE; a ROS-specific dye) using a COPAS FlowSort for flow vermimetry.
Young adult wild-type (A), hsp-4p::GFP (B), hsp-16.1p::GFP (C), or rpt-3::GFP (D) worms were incubated with LK molecules at 50 or 100 µM, DMSO control, or positive controls. For panel A, the worms were treated with compound for 10 h, and then the worms were stained with 4 µM DHE for 1 h before washing and fluorescence measurement. For panels B to D, the worms were treated with compound for 15 h prior to fluorescence measurement. Mean values from at least three biological replicates are shown. *, P < 0.05; **, P < 0.01; ***, P < 0.001 (compared to the solvent control). P values were calculated using Student’s t test. Error bars represent the standard error of the mean. […]

For COC(=O)/C=C/C(=O)Nc1ccccc1 [LK32], the LD50 (CCRF-CEM) is given as roughly 40 µM.

With O=c1cc(CNc2ccc(Br)cc2)nc2sccn12 [LK56] the “ESRE activation (hsp-16.1p::GFP)” value (ESRE network) was “weak activation”.
